Source: ChEMBL document CHEMBL1144340, “QSAR for phospholipase A2 inhibitions by 1-acyloxy-3-N-n-octylcarbamyl-benzenes” (Bioorg Med Chem Lett, 2005)
pKi: −log10 of the molar value.

Each compound was assayed against T1, Acidic phospholipase A2 CM-I (Naja mossambica, UniProt P00602) (assay: Inhibitory activity against phospholipase A2).
T1 sequence (P00602 whole entry): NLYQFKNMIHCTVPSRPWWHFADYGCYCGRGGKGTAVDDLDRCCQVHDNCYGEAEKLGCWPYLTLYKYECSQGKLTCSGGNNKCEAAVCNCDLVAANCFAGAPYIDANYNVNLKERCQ
Work on CCCCCCCCNC(=O)Oc1cccc(OC(=O)Cc2ccccc2)c1 yielded a pKi of 4.14. CCCCCCCCNC(=O)Oc1cccc(OC(=O)c2ccccc2)c1 gave a pKi of 4.02. For CCCCCCCCNC(=O)Oc1cccc(OC(=O)C(c2ccccc2)(c2ccccc2)c2ccccc2)c1, the pKi was 4.42. CCCCCCCCNC(=O)Oc1cccc(OC(=O)CCCCCCC)c1 was tested, and the pKi was 4.57. For CCCCCCCCNC(=O)Oc1cccc(OC(=O)CCCC)c1, the pKi was 4.12. For CCCCCCCCNC(=O)Oc1cccc(OC(=O)C(C)(C)C)c1, the pKi was 4.26. For CCCCCCCCCCCCCCCC(=O)Oc1cccc(OC(=O)NCCCCCCCC)c1, the pKi was 5.02. Compound CCCCCCCCNC(=O)Oc1cccc(OC(=O)C(Cl)(Cl)Cl)c1 has a pKi of 3.92. CCCCCCCCNC(=O)Oc1cccc(OC(C)=O)c1 gave a pKi of 4.01.
